Data as given in US9573954B2, “Pyrazolopyrimidine compounds” (University Health Network, priority 2012, dated 2017).
Where two headings read alike, the source gives them in different places.

Key:
[1] = test system: breast cancer cells (MDA-MB-468); experiment: Cancer cell line growth inhibition, Sulforhodamine B assay, MDA-MB-468; format: cell-based; settings: read-out: Cancer Cell Line GI50 Range MDA-MB-468
How it was run: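 Sulforhodamine B staining (TCA-fixed, read at 570 nm) estimates cell mass after 5-day compound treatment of MDA-MB-468 cells, final concentrations 10 nM to 50 μM in 10% FBS DMEM. GI50 derived from growth inhibition versus DMSO controls.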

[2] = test system: ovarian cancer cells (OVCAR-3); experiment: Cancer cell line growth inhibition, Sulforhodamine B assay, OVCAR-3; format: cell-based; settings: read-out: Cancer Cell Line GI50 Range OVCAR-3
How it was run: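 OVCAR-3 cells were seeded 24 h before compound addition, then exposed for 5 days to final concentrations of 10 nM to 50 μM in DMEM with 10% FBS. Growth was measured by TCA fixation and sulforhodamine B staining with absorbance at 570 nm. Inhibition was relative to DMSO-only cells, and GI50 came from curve fitting.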

human TTK = molecular target: T1, human TTK (Homo sapiens, UniProt P33981); experiment: TTK inhibition assay (indirect ELISA); format: biochemical
T1 construct: Active TTK was purchased from Invitrogen as an amino terminal GST fusion of full length human TTK; purchased Invitrogen
T1 sequence (P33981 1-857): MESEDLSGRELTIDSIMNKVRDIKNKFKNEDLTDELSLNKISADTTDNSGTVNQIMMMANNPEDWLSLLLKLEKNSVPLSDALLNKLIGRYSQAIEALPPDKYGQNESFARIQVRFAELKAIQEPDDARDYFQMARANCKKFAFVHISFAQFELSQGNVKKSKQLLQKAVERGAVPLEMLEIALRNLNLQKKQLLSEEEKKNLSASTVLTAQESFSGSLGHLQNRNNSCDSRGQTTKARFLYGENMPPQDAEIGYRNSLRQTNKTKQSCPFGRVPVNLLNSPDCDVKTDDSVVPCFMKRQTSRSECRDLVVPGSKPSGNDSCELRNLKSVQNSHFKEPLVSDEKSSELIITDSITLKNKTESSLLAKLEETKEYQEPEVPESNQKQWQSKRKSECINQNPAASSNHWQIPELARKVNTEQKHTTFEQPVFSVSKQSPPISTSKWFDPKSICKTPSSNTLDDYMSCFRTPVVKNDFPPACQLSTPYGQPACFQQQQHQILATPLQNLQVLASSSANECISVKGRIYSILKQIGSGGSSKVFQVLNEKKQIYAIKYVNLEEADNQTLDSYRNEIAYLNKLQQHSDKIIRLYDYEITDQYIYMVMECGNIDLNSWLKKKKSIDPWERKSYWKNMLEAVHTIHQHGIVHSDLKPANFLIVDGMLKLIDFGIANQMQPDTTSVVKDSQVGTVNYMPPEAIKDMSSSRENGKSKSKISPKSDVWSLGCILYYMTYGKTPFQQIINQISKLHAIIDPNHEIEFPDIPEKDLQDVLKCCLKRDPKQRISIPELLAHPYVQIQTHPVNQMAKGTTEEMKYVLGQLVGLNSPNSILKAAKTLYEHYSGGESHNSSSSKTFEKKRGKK
How it was run: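 Activity detected by indirect ELISA after compounds sat with full-length GST-TTK for 5 min prior to starting the reaction with ATP. IC50 came from a four-parameter logistic curve of % inhibition, calculated against background and uninhibited control wells.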

[3] = test system: colon cancer cells (HCT116); experiment: Cancer cell line growth inhibition, Sulforhodamine B assay, HCT116; format: cell-based; settings: read-out: Cancer Cell Line GI50 Range HCT116
How it was run: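 GI50 is calculated from growth inhibition relative to DMSO controls, using TCA-fixed, SRB-stained protein mass read at 570 nm. Compound, 10 nM–50 μM final in 10% FBS DMEM, was applied for 5 days to HCT116 cells that had been plated 24 h before at 1000–4000/well.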

[4] = Homo sapiens, MDA-MB-468, MDA-MB-468 breast cancer cell line
[5] = Homo sapiens, OVCAR-3, OVCAR-3 ovarian cancer cell line
[6] = 100 μM ATP, read-out: TTK IC50 Range
[7] = Homo sapiens, HCT-116, HCT116 colon cancer cell line
[8] = 16 μM ATP (Sigma cat# A7699), read-out: TTK IC50 Range (denoted with an asterisk)

SMILES | GI50 [1, 4] | GI50 [2, 5] | IC50 (human TTK; [6]) | GI50 [3, 7] | IC50 (human TTK; [8]) | GI50 ([1]; MDA-MB-468 breast cancer cell line) | GI50 ([2]; OVCAR-3 ovarian cancer cell line) | GI50 ([3]; HCT116 colon cancer cell line)
O=C(NC1CC1)c1ccc(-c2cnn3c(NCCN4CCOCC4)cc(Oc4cccc(F)c4F)nc23)cc1Cl [Example C33, 2-chloro-N-cyclopropyl-4-(5-(2,3-difluorophenoxy)-7-((2-morpholinoethyl)amino)pyrazolo[1,5-a]pyrimidin-3-yl)benzamide] | ≤ 100 nM | ≤ 100 nM | < 100 nM | ≤ 100 nM |  |  |  | 
Cc1cc(-c2cnn3c(NCC4CCOCC4)cc(NCC4COC4)nc23)ccc1C(=O)NC1CC1 [Example C71] | 100 to 500 nM | > 500 nM | < 100 nM | 100 to 500 nM |  |  |  | 
O=C(NC1CC1)c1ccc(-c2cnn3c(NCCN4CCOCC4)cc(Oc4cccc(F)c4)nc23)cc1Cl [Example C34] | ≤ 100 nM | ≤ 100 nM | < 100 nM | ≤ 100 nM |  |  |  | 
Cc1cc(-c2cnn3c(NCC4CCOCC4)cc(NC4(CO)CCOCC4)nc23)ccc1C(=O)NC1CC1 [Example C88] | 100 to 500 nM | > 500 nM | < 100 nM | > 500 nM |  |  |  | 
Cc1cc(-c2cnn3c(NCCCn4ccnc4)cc(N[C@H]4CCCC[C@H]4O)nc23)ccc1C(=O)NC1CC1 [Example C132] | 100 to 500 nM | > 500 nM | < 100 nM | > 500 nM |  |  |  | 
Cc1cc(-c2cnn3c(NC[C@H]4C[C@@H](O)C4)cc(NC4CCOCC4)nc23)ccc1C(=O)NC1CC1 [Example C156] | 100 to 500 nM | 100 to 500 nM | < 100 nM | 100 to 500 nM |  |  |  | 
Cc1cc(-c2cnn3c(NCC4CCOCC4)cc(N[C@H]4COC[C@H]4O)nc23)ccc1C(=O)NC1CC1 [Example C107] | 100 to 500 nM | > 500 nM | < 100 nM | 100 to 500 nM |  |  |  | 
Cc1cc(-c2cnn3c(NCC4(F)CCN(C)CC4)cc(NC4CCCC4)nc23)ccc1C(=O)NC1CC1 [Example C170] | 100 to 500 nM | > 500 nM | < 100 nM | 100 to 500 nM |  |  |  | 
Cc1cc(-c2cnn3c(NCC4CCOCC4)cc(N[C@H]4CCCC[C@@H]4O)nc23)ccc1C(=O)NC1CC1 [Example C125] | ≤ 100 nM | 100 to 500 nM | < 100 nM | ≤ 100 nM |  |  |  | 
Cc1cc(-c2cnn3c(NCC4CCOCC4)cc(NCC4(CO)CC4)nc23)ccc1C(=O)NC1CC1 [Example C113] | 100 to 500 nM | 100 to 500 nM | < 100 nM | 100 to 500 nM |  |  |  | 
Cc1cc(-c2cnn3c(NCC4CCOCC4)cc(N4CCC[C@H]4CO)nc23)ccc1C(=O)NC1CC1 [Example C161] | 100 to 500 nM | 100 to 500 nM | < 100 nM | ≤ 100 nM |  |  |  | 
Cc1cc(-c2cnn3c(NCC(C)C)cc(N[C@H]4CCCC[C@H]4O)nc23)ccc1C(=O)NC1CC1 [Example C157] | ≤ 100 nM | ≤ 100 nM | < 100 nM | ≤ 100 nM |  |  |  | 
Cc1cc(-c2cnn3c(NCC4CCOCC4)nc(NC4CCOCC4)nc23)ccc1C(=O)NC1CC1 [Example C23] | > 500 nM | > 500 nM |  | 100 to 500 nM | < 100 nM |  |  | 
Cc1cc(-c2cnn3c(NCC4CCOCC4)cc(N[C@H](CO)C4CCOCC4)nc23)ccc1C(=O)NC1CC1 [Example C89] | > 500 nM | > 500 nM | < 100 nM | 100 to 500 nM |  |  |  | 
CC[C@H](Nc1cc(NC[C@@H]2CCOC2)n2ncc(-c3ccc(C(=O)NC4CC4)c(C)c3)c2n1)[C@H](C)O [Example C134] | 100 to 500 nM | 100 to 500 nM | < 100 nM | 100 to 500 nM |  |  |  | 
Cc1cc(-c2cnn3c(NCC4CCOCC4)cc(N4CCOC[C@H]4CO)nc23)ccc1C(=O)NC1CC1 [Example C87] | 100 to 500 nM | > 500 nM | < 100 nM | 100 to 500 nM |  |  |  | 
Cc1cc(-c2cnn3c(NCCCn4ccnc4)cc(Oc4ccccc4)nc23)ccc1C(=O)NC1CC1 [Example C61] | ≤ 100 nM | ≤ 100 nM | < 100 nM | ≤ 100 nM |  |  |  | 
Cc1cc(-c2cnn3c(NCC4(F)CCN(C)CC4)cc(OC4CCCC4)nc23)ccc1C(=O)NC1CC1 [Example C174] | > 500 nM | > 500 nM | < 100 nM | 100 to 500 nM |  |  |  | 
Cc1cc(-c2cnn3c(NCCN4CCOCC4)nc(Oc4cccc(F)c4)nc23)ccc1C(=O)NC1CC1 [Example C27] | 100 to 500 nM | 100 to 500 nM |  | ≤ 100 nM | < 100 nM |  |  | 
Cc1cc(-c2cnn3c(NCC4CCOCC4)cc(N(C)C4CCCC4)nc23)ccc1C(=O)NC1CC1 [Example C58] | 100 to 500 nM | 100 to 500 nM | < 100 nM | ≤ 100 nM |  |  |  | 
Cc1cc(-c2cnn3c(NCC4(O)CCOCC4)cc(Oc4cccnc4)nc23)ccc1C(=O)NC1CC1 [Example C98] | > 500 nM | > 500 nM | < 100 nM | 100 to 500 nM |  |  |  | 
Cc1cc(-c2cnn3c(NC[C@H]4CCCO4)cc(NC4CCCC4)nc23)ccc1C(=O)NC1CC1 [Example C72] |  |  | < 100 nM |  |  | ≤ 100 nM | 100 to 500 nM | ≤ 100 nM
Cc1cc(-c2cnn3c(NCC4CCOCC4)cc(N4CC[C@H](O)C4)nc23)ccc1C(=O)NC1CC1 [Example C143] | > 500 nM | > 500 nM | 100 to 500 nM | > 500 nM |  |  |  | 
Cc1cc(-c2cnn3c(NCCN4CCCCC4)cc(Oc4cccc(F)c4)nc23)ccc1C(=O)NC1CC1 [Example C180] | 100 to 500 nM | 100 to 500 nM | < 100 nM | ≤ 100 nM |  |  |  | 
COC[C@@H](Nc1cc(NCC2CCOCC2)n2ncc(-c3ccc(C(=O)NC4CC4)c(C)c3)c2n1)C(C)C [Example C104] | 100 to 500 nM | 100 to 500 nM | < 100 nM | ≤ 100 nM |  |  |  | 
Cc1cc(-c2cnn3c(NCC4CCOCC4)cc(N[C@H]4CCCOC4)nc23)ccc1C(=O)NC1CC1 [Example C83] | 100 to 500 nM | 100 to 500 nM | < 100 nM | ≤ 100 nM |  |  |  | 
Cc1cc(-c2cnn3c(NCC4(F)CCNCC4)cc(OC4CCCC4)nc23)ccc1C(=O)NC1CC1 [Example C173] | > 500 nM | > 500 nM | < 100 nM | 100 to 500 nM |  |  |  | 
